Twelve molecules from US9422321B2, “Pyrimidine nucleoside derivatives, synthesis methods and uses thereof for preparing anti-tumor and anti-virus medicaments” (High & New Technology Research Center, Henan Academy of …, priority 2010, dated 2016) can be followed below.

Molecules are shown by their SMILES. Several values for one entry are separate records, joined by “and”; a condition that tells them apart may be missing. Identical values can stand only once.

The subject of one series is VSVG/HIV-luc (NL4-3). Kind of series: microbe, parasite or virus in culture. It is filed as cell-based, HIV-1. The following applies: Human immunodeficiency virus 1, NL43, HEK-293T; for EC50: 48 h, read-out: EC50 (μM) VSVG/HIV-luc (NL4-3).
Series [1] can be described thus: MTS test of effects of the compound on cell survival. It is filed as cell-based. Particulars: human, 293T cells. How it is done:
Then, 20 μL freshly prepared mixture of MTS/PMS was added to each well and after 4 h incubation in the incubator at 37° C. with 5% CO2, the color was developed. The light absorption (OD) of each well at wavelengths 490 nm and 650 nm (background) was detected on an enzyme linked immuno analyzer, and the survival rate of cells was calculated.

For another series, the system named is HBsAg. Kind of series: In vitro inhibition of HBV: HBsAg in HepG2.2.15 cells by ELISA. The following applies: Hepatitis B virus, HepG2.2.15, read-out: IC50 (μM) (HBsAg). In kind it is cell-based. On the procedure: (§1) A tube of frozen HepG2.2.15 cells taken from a liquid nitrogen tank was quickly placed into a water bath at 42° C. and shaken to thaw. DMEM complete medium (fetal bovine serum 10%, G418 380 μg/mL, Penicillin 100 U/ml, Streptomycin 100 U/ml) was used for cell culturing at conditions of 37° C. and 5% CO2. The number of cell passage in normal growing cells was once per 2-3 days.
(§2) The effect of a compound on HBV surface antigen s and antigen e in the cell culture was detected using a screening concentration lower than the half toxic concentration of the compound. HepG2.2.15 cells in logarithmic growth phase were selected and digested with trypsin into single cell suspension, and were seeded to a 24-well plate at a concentration of 2×10^4/mL, 1 mL per well. Media of different medicament concentrations were added, three wells for each concentration, and cells added with complete medium were set as normal control. Cell supernatants and cells at day 3, day 6 and day 9 were collected and kept under −20° C. The intracellular and extracellular expressions of e antigen and surface antigen at day 3, day 6 and day 9 were determined by ELISA.
(§3) 2.4 Effect of the Compound on HBeAg and HBsAg in HepG2.2.15 Cell Supernatant Detected by ELISA
(§4) The instructions of the kit were followed;
(§5) Measurement: OD value of each well was read from microplate reader using dual wavelength 450/630 nm.
(§6) Result determination: The Cutoff value was first calculated according to equation: COV=average OD of negative control×2.1. Then, if a sample had OD≧COV, the result was determined as positive, or if a sample had OD≦COV, the result was determined as negative.
Background: In an ELISA, binding on a coated surface is turned into a signal by an enzyme label.

For a further series, the system named is HBeAg. The experiment in a line: In vitro inhibition of HBV: HBeAg in HepG2.2.15 cells by ELISA. It is filed as cell-based. Particulars: Hepatitis B virus, HepG2.2.15, read-out: IC50 (μM) (HBeAg). On the procedure: as §1, §2, §3, §4, §5, §6
A short description of series [2]: MTT test of cytotoxicity on HepG2.2.15 cells. In kind it is cell-based. The following applies: human, read-out: CC50 (μM) (HepG2. 2. 15). How it is done:
as §1
Cytotoxicity of the compound on HepG2.2.15 cells was tested with the MTT colorimetric assay established by Mosmann. After continuous incubation for 72 h, 10 μL MTT was added to each well. Four hours later, the supernatant was discarded and 200 μL DMSO was added to each well. The OD value in each well was read using a microplate reader (measurement wavelength 490 nm, reference wavelength 630 nm). The result was recorded and the percentage inhibition of HepG2.2.15 cells by each compound was calculated:
The half toxic concentration (TC50) of the medicament on cells was calculated according to the percentage inhibition of the cell by the medicament.
Background: Formazan colour is commonly taken as a measure of viable cells.

Another series has as its system HCV-RNA. Kind of series: In vitro anti-HCV activity, quantitative determination of HCV-RNA. It is filed as cell-based, hepatitis C virus (HCV). Particulars: for levels of HCV-RNA: control 0 μg/mL: Exp 1 5.3 × 10^2, Exp 2 4.0 × 10^2. On the procedure:
HCV replication cells (Avva.5) were cultivated in Dulbecco's modified Eagle medium containing 10% fetal calf serum and 1 mg/mL G418. 293-Sip-L cells were cultivated in Dulbecco's modified Eagle medium containing 10% fetal calf serum, 250 μg/mL G418 and 150 μg/mL hygromycin B.
Cells in a Φ60 mm Petri dish were incubated in positive medium containing 100 μL HCV for 12 h, then in fresh medium free of HCV that was replaced every day. When being tested for HCV-RNA seven days after the infection, cells were trypsinized and washed with Dulbecco's modified Eagle medium twice through a centrifugation method. The upper layer from the second wash (as a control) and the washed cells were collected in pairs and used for RNA extraction and RT-PCR test. The β-actin mRNA was determined simultaneously as a control.
The quantitative determination of HCV-RNA was performed using automatic PCR enzyme-linked immunoassay (version 2.0, Roche Diagnostics, Branchburg, N.J.).
The levels of HCV-RNA were determined using automatic PCR enzyme-linked immunoassay.

The subject of series [3] is human lymphoma Raji cells. The experiment in a line: Inhibition of cell growth by MTT reduction. In kind it is cell-based. Particulars: read-out: Inhibitory activity, IC50. On the procedure: Cell culturing: Raji cells in RPMI1640 culture solution containing 10% fetal calf serum were incubated in an incubator at 37° C. with 5% CO2 for 2-3 days. Cells in logarithmic growth phase were used for the experiment.
Cells in logarithmic growth phase were taken and after the cell density was adjusted to 5×10^4 cells/mL, they were seeded to three 96-well plates separately, 100 μL per well. The culture solution was replaced after 24 h cell culturing. […] The blank group (for zeroing) was only added with RPMI1640 culture solution containing 10% fetal calf serum and no cell was added. The control group was added with an equal volume of RPMI1640 culture solution containing 10% fetal calf serum. Each group had 5 replicates. After cells were incubated for 24 h, 48 h and 72 h separately, 20 μL MTT solution (5 mg/mL) was added to each well followed by a 4 h incubation. The supernatant was removed by sucking it out and discarded. 150 μL DMSO was added per well, vortexed about 5 min to mix evenly. After the crystal was completely dissolved, the absorption (A) value at 570 nm of each well was tested within 20 min on enzyme-linked immuno analyzer. The experiment was repeated 3 times and the average was taken to calculate the inhibition rate of cell growth by the following equation. Inhibition rate of cell growth=(1−average A value of experimental group/average A value of control group)×100%

The CC50 is the concentration that lowers cell viability or growth by half. The IC50 is the midpoint of a concentration-inhibition curve. Regarding `COC(=O)[C@@H](Cc1cc2ccccc2[nH]1)Nc1ccn([C@@H]2O[C@@](CO)(N=[N+]=[N-])C(O)C2F)c(=O)n1` (stereo partly shown) [Compound 7c], the EC50 with VSVG/HIV-luc (NL4-3) worked out at 0.5 µM. Further, in the series on VSVG/HIV-luc (NL4-3) (read-out: Inhibitory activity at 10 μM), the inhibition at 10 µM was 38.8 ± 3.3%. Further, the CC50 at 44 h in series [1] was at least 25 µM. Also, the IC50 in the series on HBsAg was 0.2 µM; with HBeAg, 0.32 µM. In addition, the CC50 at 72 h in series [2] was at least 280 µM.
For `[N-]=[N+]=N[C@]1(CO)O[C@@H](n2ccc(NCCN)nc2=O)C(F)C1O` (stereo partly shown) [Compound 5-02], the EC50 in the series with VSVG/HIV-luc (NL4-3) worked out at 0.093 ± 0.067 µM. In series [1], the half-maximal cytotoxic concentration (CC50) at 44 h was at least 25 µM. Also, the results for the IC50 (in the series on HBsAg; in series [3]) were 8.05 µM and 45 µM, respectively. For the same molecule, in series [2], the CC50 at 72 h is at least 25 µM. The “levels of HCV-RNA” value in the series on HCV-RNA (0.06 μg/mL in the culture) is 4.5 × 10^2 and 4.2 × 10^2; in the series with HCV-RNA (0.6 μg/mL in the culture) it was 0.90 × 10^2 and 0.70 × 10^2; in the series on HCV-RNA (6 μg/mL in the culture) it was 1.0 × 10^2 and 0.80 × 10^2. The “inhibitory effect on HCV” value in the series with HCV-RNA (concentrations 6, 0.6 and 0.06 μg/mL) is on record as “exhibited inhibitory effect”.
As for `COC(=O)CC[C@H](Nc1ccn([C@@H]2O[C@@](CO)(N=[N+]=[N-])C(O)C2F)c(=O)n1)C(=O)OC` (stereo partly shown) [Compound 7b], the EC50 with VSVG/HIV-luc (NL4-3) came out at 0.7 ± 0.1 µM. In series [1], this molecule had a CC50 at 44 h of at least 25 µM. Moreover, the values for the IC50 (in the series with HBsAg; in the series on HBeAg; in series [3]) were 0.02 µM, 6.16 µM and 28 µM, respectively. The CC50 at 72 h in series [2] was above 1250 µM.
Take `CNc1ccn([C@@H]2O[C@@](CO)(N=[N+]=[N-])C(O)C2F)c(=O)n1` (stereo partly shown) [Compound 5-28]: the EC50 in the series on VSVG/HIV-luc (NL4-3) was 6.7 ± 4.7 µM. The molecule also gave a CC50 at 44 h in series [1] of at least 25 µM. The IC50 in the series with HBsAg was determined as 6.26 µM; with HBeAg, 14.3 µM. Besides, the CC50 at 72 h in series [2] is above 250 µM.
Regarding `[N-]=[N+]=N[C@]1(CO)O[C@@H](n2ccc(NCC(N)=O)nc2=O)C(F)C1O` (stereo partly shown) [Compound 7j], the EC50 in the series on VSVG/HIV-luc (NL4-3) was 10 ± 7 µM. Also, the CC50 at 44 h in series [1] is at least 25 µM. In the series with HBeAg, the IC50 came to 6.16 µM. The CC50 at 72 h in series [2] was 239 µM.
Take `CN(C)c1ccn([C@@H]2O[C@@](CO)(N=[N+]=[N-])C(O)C2F)c(=O)n1` (stereo partly shown) [Compound 5-21]: the EC50 in the series with VSVG/HIV-luc (NL4-3) came to 13 ± 6 µM. Further, the CC50 at 44 h in series [1] is at least 25 µM. For the same molecule, the IC50 in the series with HBeAg is 15.5 µM. The CC50 at 72 h in series [2] is above 250 µM.
Take `[N-]=[N+]=N[C@]1(CO)O[C@@H](n2ccc(N[C@@H](Cc3cc4ccccc4[nH]3)C(=O)O)nc2=O)C(F)C1O` (stereo partly shown) [Compound 8d]: the EC50 in the series with VSVG/HIV-luc (NL4-3) was 0.7 ± 0.1 µM. The CC50 at 44 h in series [1] is at least 25 µM. Also, the IC50 turned out to be 0.03 µM with HBsAg and 0.36 µM with HBeAg. Further, the CC50 at 72 h in series [2] was at least 25 µM.
Consider `COC(=O)C[C@H](Nc1ccn([C@@H]2O[C@@](CO)(N=[N+]=[N-])C(O)C2F)c(=O)n1)C(=O)OC` (stereo partly shown) [Compound 8e], for which the EC50 in the series on VSVG/HIV-luc (NL4-3) was 12 ± 2.8 µM. For the same molecule, the 50% cytotoxic concentration (CC50) at 44 h in series [1] is at least 25 µM. For the same molecule, the results for the IC50 in the series with HBsAg and in the series with HBeAg were 20.5 µM and 12.8 µM, respectively. Moreover, the CC50 at 72 h in series [2] was determined as 231 µM.
On to `COC(=O)C(C)Nc1ccn([C@@H]2O[C@@](CO)(N=[N+]=[N-])C(O)C2F)c(=O)n1` (stereo partly shown) [Compound 7m], for which the EC50 in the series with VSVG/HIV-luc (NL4-3) was 10 ± 6.6 µM. In series [1], this molecule yielded a CC50 at 44 h of at least 25 µM. Besides, the IC50 came out at 1.89 µM in the series with HBsAg and 21.2 µM in the series on HBeAg. The CC50 at 72 h in series [2] was found to be 311 µM.
For `[N-]=[N+]=N[C@]1(CO)O[C@@H](n2ccc(NCC(=O)O)nc2=O)C(F)C1O` (stereo partly shown) [Compound 8a], the EC50 with VSVG/HIV-luc (NL4-3) was 5.1 ± 1.1 µM. Also, the 50% cytotoxic concentration (CC50) at 44 h in series [1] is at least 25 µM. Further, the IC50 was found to be 13.8 µM with HBsAg and 16.7 µM with HBeAg. Also, in series [2], the CC50 at 72 h is above 250 µM.
`[N-]=[N+]=N[C@]1(CO)O[C@@H](n2ccc(NO)nc2=O)C(F)C1O` (stereo partly shown) [Compound 5-17]: the EC50 in the series on VSVG/HIV-luc (NL4-3) was determined as 0.7 ± 0.2 µM. This molecule had a CC50 at 44 h in series [1] of at least 25 µM. Further, the figures for the IC50 in the series on HBsAg and with HBeAg were 0.07 µM and 0.11 µM, respectively. Moreover, in series [2], the CC50 at 72 h amounted to 951 µM.
As for `[N-]=[N+]=N[C@]1(CO)O[C@@H](n2ccc(N(CCO)CCO)nc2=O)C(F)C1O` (stereo partly shown) [Compound 5-19], the EC50 with VSVG/HIV-luc (NL4-3) was found to be 0.8 ± 0.7 µM. This molecule had a CC50 at 44 h in series [1] of at least 25 µM. Besides, the results for the IC50 (in the series on HBsAg; in series [3]) were 0.009 µM and 1.6 µM, respectively. Further, the CC50 at 72 h in series [2] is above 1250 µM.
